Key:
[1] = Turbidity assay of ECM extracted from VAT (in vitro fibrillogenesis); design: species or system zebrafish; details: ECM of sibling VAT, vMO injected before extraction
Source text: To assess fibrillogenesis in plxnd1 mutant VAT, ECM is extracted from zebrafish VAT, and fibril polymerization and gel formation is induced in vitro (FIG. 13). Turbidity assays are used to determine the rate and ultimate extent of fibrillogenesis. ECM was purified from dissected zebrafish VAT (˜100 VATS per tube, triplicate tubes per condition) as previously described. (Uriel S, et al. (2009), Tissue engineering. Part C, Methods 15(3):309-321.) Urea extraction was allowed to proceed for 14-21 days at 4° C. Protein concentration (˜7 mg/ml) was assessed by the Bradford assay (Thermo Scientific). […] To induce fibril polymerization and gel formation, acetic acid was added to a pH of 7. Turbidity assays were conducted as previously described using a Spectronic 20D+ spectrometer (Thermo Scientific). (Wood G C & Keech M K (1960), The Biochemical journal 75:588-598.)

col5a1 = experiment: RT-PCR of col5a1 mRNA isoforms after Vivo-Morpholino injection; format: in vivo, zebrafish; details: serial intra-abdominal injection, 80 ng/mg vMO
Experimental: Zebrafish qRT-PCR. RNA extraction, PCR and quantitative RT-PCR (qRT-PCR) was performed as previously described using total RNA from dissected whole VAT tissue of 10 mm zebrafish. (Rawls J F, et al. (2007), PNAS 104(18):7622-7627.) VAT and SAT were dissected from adult Ekkwill strain wild-type zebrafish and used to assess plxnd1 mRNA levels (FIG. 18(B)). Samples contained 5-8 siblings or mutants per group, and qRT-PCR was ran with three biological replicate groups, and reactions ran in triplicate.
Zebrafish were raised under normal conditions until 30-50 days post fertilisation. Fish were anesthetised in 0.67 g/L MS222 and SL measured using an eyepiece reticle. Intra-abdominal injections were then performed on a Nanoject II injector (Drummond) as previously described. (McMenamin S K, et al (2013), Endocrinology 154(4):1476-1487.) At each injection, dosage was adjusted according to body weight (mg) using the following equation: mg=−48.10+7.36*SL+0.68*(SL-8.94)^2. (McMenamin S K, et al (2013), Endocrinology 154(4):1476-1487.) Concentration of individual compounds at injection were (relative to volume/mass of fish): 80 ng/mg col5a1-ile2 vMO (5′-[…]-3′; SEQ ID NO.: 55) or col5a1-e3i3 vMO (5′-[…]-3′; SEQ ID NO.: 56) (Gene-Tools, LLC), 100 μM EDHB (Sigma) and 80 ng/mg EdU. Control animals were injected with either a standard control vMO (5′-[…]-3′; SEQ ID NO.: 57) (Gene-Tools) or 0.1% DMSO.

Type V collagen (Col5) = experiment: Col5 immunofluorescence in VAT after vMO injection; format: in vivo, zebrafish; details: endothelial cell and peri-adipocyte locations
Experimental: Immunohistochemistry was performed as previously described (Kanther M, et al. (2011), Gastroenterology 141(1):197-207.) Immunohistochemistry was conducted with antibodies to Type V collagen (Col5) (Rockland, #600-401-107S), Laminin (Sigma, #L-9393), WCL15 (Romano N, et al. (1998), Anatomy and embryology 198(1):31-41; van der Sar A M, et al. (2004), Trends in microbiology 12(10):451-457), and Alexa 568 (Invitrogen, #A-1 1011). Transmission electron microscopy was carried out as described previously. (Flynn E J, et al. (2009), Journal of lipid research 50(8):1641-1652.) Whole 10-12 mm SL fish were processed for paraffin sectioning and Masson's trichrome, combined Masson's and Elastin, periodic acid Schiff (PAS) and Alcian Blue stains. (Sabaliauskas N A, et al. (2006), Methods 39(3):246-254.)
Zebrafish were raised under normal conditions until 30-50 days post fertilisation. Fish were anesthetised in 0.67 g/L MS222 and SL measured using an eyepiece reticle. Intra-abdominal injections were then performed on a Nanoject II injector (Drummond) as previously described. (McMenamin S K, et al (2013), Endocrinology 154(4):1476-1487.) At each injection, dosage was adjusted according to body weight (mg) using the following equation: mg=−48.10+7.36*SL+0.68*(SL-8.94)^2. […]

Row | Substance | in vitro fibrillogenesis [1] | splicing of col5a1 (RT-PCR, mRNA isoform) (col5a1) | Col5 protein levels (Col5 reactivity) (Type V collagen (Col5))
1 | col5a1-ile2 vMO: Vivo-Morpholino 5′-GAAACATGGATGCTACAGAGAGAGA-3′ (SEQ ID NO.: 55) targeting zebrafish col5a1 intron 1-exon 2 boundary (all phosphorodiamidate morpholino (PMO); Vivo-Morpholino, delivery moiety not given here, further chemistry not fully specified) | did not affect | inclusion of part of intron 1 | significantly reduced
2 | col5a1-e3i3 vMO: Vivo-Morpholino 5′-GAGTTCCTACTTACCTCAAACACCT-3′ (SEQ ID NO.: 56) targeting zebrafish col5a1 exon 3-intron 3 boundary (all phosphorodiamidate morpholino (PMO); Vivo-Morpholino, delivery moiety not given here, further chemistry not fully specified) |  | skipping of exon 3 | 

Source: US11921120B2, “Compositions and methods for identifying and modulating metabolic health” (Duke University, priority 2015, dated 2024)
